According to patent US8735429B2, “Benzamide compounds useful as histone deacetylase inhibitors” (AstraZeneca AB, priority 2005, dated 2014):

Legend:
[1] = molecular target: T1, recombinant human HDAC1 (Homo sapiens, UniProt Q13547); assay: In vitro enzyme assay of recombinant HDAC1 (Test (a)); format: biochemical; details: recombinant human HDAC1, acetylated histone H4 peptide substrate; read-out: IC50 Test (a) (In vitro assay for the inhibition of HDAC1)
T1 construct: FLAG (C); made in house; host or cells: Hi5 insect cells
Method: (a) In Vitro Enzyme Assay of Recombinant HDAC1
HDAC inhibitors were screened against recombinant human HDAC1 produced in Hi5 insect cells. The enzyme was cloned with a FLAG tag at the C-terminal of the gene and affinity purified using Anti-FLAG M2 agarose from SIGMA (A2220).
The deacetylase assays were carried out in a 50 μl reaction. HDAC1 (75 ng of enzyme) diluted in 15 μl of reaction buffer (25 mM TrisHCl (pH 8), 137 mM NaCl, 2.7 mM KCl, 1 mM MgCl2) was mixed with either buffer alone (10 μl) or buffer containing compound (10 μl) for 30 minutes at ambient temperature. 25 μM acetylated histone H4 peptide (KI 174 Biomol) diluted in 25 μl of buffer was then added to the reaction and incubated for one hour at ambient temperature. The reaction was stopped by addition of an equal volume (50 μl) of Fluor de Lys developer (Biomol) containing Trichostatin A at 2 μM. The reaction was allowed to develop for 30 minutes at ambient temperature and then fluorescence measured at an excitation wavelength of 360 nm and an emission wavelength of 465 nm. IC50 values for HDAC enzyme inhibitors were determined by performing dose response curves with individual compounds and determining the concentration of inhibitor producing fifty percent decrease in the maximal signal (diluent control).

[2] = test system: HCT116 cells; assay: In vitro assay of inhibition of proliferation in whole cells (Test (b)); format: cell-based; details: Homo sapiens, HCT-116, 72 hours, MTS, read-out: IC50 Test (b) (In vitro assay for the inhibition of whole cell proliferation)
Method: (b) In Vitro Assay of Inhibition of Proliferation in Whole Cells
Inhibition of proliferation in whole cells was assayed using the Promega cell titer 96 aqueous proliferation assay (Promega #G5421). HCT116 cells were seeded in 96 well plates at 1×10^3 cells/well, and allowed to adhere overnight. They were treated with inhibitors for 72 hours. 20 μl of the tetrazolium dye MTS was added to each well and the plates were re-incubated for 3 hours. Absorbance was then measured on a 96 well plate reader at […]. The IC50 values for HDAC inhibitors were determined by performing dose response curves with individual compounds and determining the concentration of inhibitor producing fifty percent decrease in the maximal signal (diluent control).

T1 sequence (Q13547 whole entry): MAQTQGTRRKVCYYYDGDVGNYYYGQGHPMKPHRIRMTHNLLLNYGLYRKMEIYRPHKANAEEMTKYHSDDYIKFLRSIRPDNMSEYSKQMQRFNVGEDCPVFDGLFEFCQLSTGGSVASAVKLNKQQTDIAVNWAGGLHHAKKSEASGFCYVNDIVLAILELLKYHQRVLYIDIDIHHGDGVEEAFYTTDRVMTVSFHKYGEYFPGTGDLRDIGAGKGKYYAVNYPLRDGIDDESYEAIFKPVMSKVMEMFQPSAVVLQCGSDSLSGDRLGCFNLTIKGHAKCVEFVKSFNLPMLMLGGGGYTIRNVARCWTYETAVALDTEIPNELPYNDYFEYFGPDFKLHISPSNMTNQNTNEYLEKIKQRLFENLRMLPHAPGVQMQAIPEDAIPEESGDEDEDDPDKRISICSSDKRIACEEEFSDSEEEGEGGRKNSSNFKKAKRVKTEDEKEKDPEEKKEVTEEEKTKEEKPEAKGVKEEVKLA

IC50 [1] | IC50 [2] | Compound
100 nM | 1430 nM | Nc1ccccc1NC(=O)c1ccc(C2CCN(Cc3ccccn3)CC2)cc1 [Comparative Compound 1, N-(2-aminophenyl)-4-[1-(pyrid-2-ylmethyl)piperidin-4-yl]benzamide]
81 nM | 508 nM | COc1c(CN2CCC(c3ccc(C(=O)Nc4ccccc4N)cc3)CC2)c(C)nn1C [Example 4, N-(2-Aminophenyl)-4-{1-[(5-methoxy-1,3-dimethyl-1H-pyrazol-4-yl)methyl]piperidin-4-yl}benzamide]
